Bounds are passed on as bounds.

This test concerns A673 Ewing sarcoma viability, CellTiter-Glo ATP luminescence, 72 h. The test can be described thus: EWS/Fli1-dependent A673 cell killing, confirmation, CellTiter-Glo luminescence, cherry-pick retest (AID 720587). A general note: ATP-based viability assays read luminescence as a measure of living cells.
Consider `COC(=O)C[C@@H]1CC[C@@H]2[C@@H](COc3ccc(NC(=O)Nc4cccc(Cl)c4)cc3C(=O)N2C)O1`, for which the AC35 was 10.3 µM.

Turning to `O=C1NC2C(=CC(O)C(O)C2O)c2cc3c(cc21)OCO3` (centres undefined), the AC35 was 0.837 µM.

For the molecule `CC12CCC3C(CCC4(O)CC(O)CCC34C=NO)C1(O)CCC2C1=COC(=O)C1` (centres undefined), the AC35 was 0.251 µM.

As for `COC(=O)C[C@H]1CC[C@@H](NC(=O)Nc2ccc(C(F)(F)F)cc2)[C@H](CO)O1`, the AC35 was 18.9 µM.

Consider `C[C@H]1CN([C@@H](C)CO)C(=O)c2cc(NC(=O)C3CCCCC3)ccc2O[C@H]1CN(C)Cc1ccc(C(=O)Nc2ccccc2N)cc1`, for which the AC35 is 11.5 µM.

Regarding `CC1OC(OC2CC(O)C3(CO)C4C(O)CC5(C)C(C6=CC(=O)OC6)CCC5(O)C4CCC3(O)C2)C(O)C(O)C1O` (centres undefined), the AC35 was 0.105 µM.

`C[C@H]1O[C@@H](O[C@H]2[C@@H](O)C[C@H](O[C@H]3[C@@H](O)C[C@H](O[C@H]4CC[C@@]5(C)[C@H](CC[C@@H]6[C@@H]5C[C@@H](O)[C@]5(C)[C@@H](C7=CC(=O)OC7)CC[C@]65O)C4)O[C@@H]3C)O[C@@H]2C)C[C@H](O)[C@@H]1O`: the AC35 is 0.173 µM.

With `C[C@]12CC[C@H](O)C[C@H]1CC[C@@H]1C2CC[C@]2(C)[C@@H](C3=CC(=O)OC3)[C@@H](O)C[C@]12O` (some centres undefined), the AC35 is 5.27 µM.

As for `C[C@@H]1CN([C@@H](C)CO)C(=O)Cc2cc(NS(=O)(=O)c3cccs3)ccc2O[C@H]1CN(C)Cc1ccc(Cl)c(Cl)c1`, the AC35 was 12.5 µM.

In the case of `COC(=O)C[C@@H]1CC[C@@H]2[C@H](COc3ccc(NC(=O)Nc4cccc(Cl)c4)cc3C(=O)N2C)O1`, the AC35 is 12.5 µM.

In the case of `Cc1ccc(/C=C2\SC(=S)N(CCCC(=O)NNC(=O)c3ccccc3O)C2=O)cc1`, the AC35 is 11.3 µM.

Take `Cc1c(Cc2ccc3c(c2)OCO3)sc(NC(=O)C(C)(C)C)c1C#N`: the AC35 is 14.9 µM.

With `O=C(Nc1ccc(Br)cc1)c1ccc(F)c(S(=O)(=O)N2CCN(c3ccccn3)CC2)c1`, the AC35 is 9.42 µM.

As to `O=c1c(Cl)cc(Cl)nn1-c1ccccc1`, the AC35 is 5.55 µM.

As for `O=C(NCc1ccc(F)cc1)N1[C@H]2CC[C@@H]1C=C(c1ccc(F)cc1OCc1ccccc1)C2`, the AC35 was 1.89 µM.

For the molecule `Cc1cc(C(=O)Nc2ccc3c(c2)C(=O)N(C)[C@@H]2CC[C@@H](CC(=O)NCc4ccc(-c5ccccc5)cc4)O[C@H]2CO3)no1`, the AC35 is 8.06 µM.

On to `Cc1cc(C)cc(C(=O)NC(=S)Nc2ccc(Cc3ccncc3)cc2)c1`, for which the AC35 was 14.2 µM.

For `COc1cc(/C=N\Nc2nc(-c3ccc(C)cc3)c(NC(C)=O)s2)ccc1O`, the AC35 is 14.4 µM.

For the molecule `C[C@H](CO)N1C[C@H](C)[C@H](CN(C)Cc2ccc(C(=O)Nc3ccccc3N)cc2)Oc2ccc(NC(=O)C3CC3)cc2CC1=O`, the AC35 is 7.86 µM.

For the molecule `COC1C(O)C(C)OC(OC2C(Oc3cccc4c(O)c5c(=O)oc6ccc(C)c7c(=O)oc(c34)c5c67)OC(C)C(O)C2O)C1O` (centres undefined), the AC35 was 6.33 µM.

For the molecule `CC(=O)Nc1cccc(-c2ccnc3c2CC(C)(C(=O)NCc2ccc(N(C)C)cc2)O3)c1` (centres undefined), the AC35 is 13.3 µM.

In the case of `C(=N\Nc1nc2ccccc2[nH]1)/c1ccccn1`, the AC35 is 1.74 µM.

As for `C[C@@H]1O[C@@H](O[C@@H]2C=C3CC[C@@H]4C(CC[C@]5(C)[C@@H](c6ccc(=O)oc6)CC[C@]45O)[C@@]3(C)CC2)[C@H](O)[C@H](O)[C@H]1O` (some centres undefined), the AC35 is 0.0233 µM.

As for `C[C@H]1CN([C@@H](C)CO)C(=O)Cc2cc(NC(=O)CCC(F)(F)F)ccc2O[C@H]1CN(C)Cc1ccc(C(=O)Nc2ccccc2N)cc1`, the AC35 is 8.75 µM.

As for `Oc1c(C(c2ccc(Cl)cc2)N2CCCC2)cc(Cl)c2cccnc12` (centres undefined), the AC35 was 1.47 µM.

For `Nc1cc2c(cc1Br)[nH]c(=O)c1ccccc12`, the AC35 was 16.6 µM.

As for `C[C@@H]1CN([C@H](C)CO)C(=O)Cc2cc(N(C)C)ccc2O[C@H]1CN(C)Cc1ccc(C(=O)Nc2ccccc2N)cc1`, the AC35 is 12.7 µM.

Regarding `COc1ccc(S(=O)(=O)Nc2cccc3c2O[C@H](CN(C)Cc2ccc(C(=O)Nc4ccccc4N)cc2)[C@H](C)CN([C@@H](C)CO)C3=O)cc1`, the AC35 was 5.46 µM.

Take `COc1cc2c(OC(C)=O)c3c(c(-c4ccc5c(c4)OCO5)c2cc1OC)C(=O)OC3`: the AC35 is 0.0216 µM.

Turning to `O=C1Nc2cc(C(=O)NCCN3CCCCCC3)ccc2S/C1=C\c1ccccc1`, the AC35 is 8.37 µM.

For `C[C@@H]1CN([C@@H](C)CO)C(=O)c2cccc(NS(=O)(=O)c3ccccc3)c2O[C@@H]1CN(C)Cc1ccc(C(=O)Nc2ccccc2N)cc1`, the AC35 was 8.86 µM.

In the case of `COc1ccccc1C(CCNCc1ccc(N(C)C)cc1)c1ccc(OC(C)C)cc1` (centres undefined), the AC35 is 4.19 µM.

With `COc1cccc(OC)c1C(=O)Nc1cc(C)nn1-c1nc2ccccc2[nH]1`, the AC35 was 13.2 µM.

Consider `COC(=O)C[C@H]1CC[C@H]2[C@H](COc3ccc(NC(=O)Nc4cccc(Cl)c4)cc3C(=O)N2C)O1`, for which the AC35 was 13.6 µM.

With `CC(C)(C)c1ccc(Oc2ccc(NC(=O)c3ccccc3C(=O)O)cn2)cc1`, the AC35 was 22.2 µM.

With `C/C(=N\NC(=O)c1n[nH]c2c1CCC2)c1cccs1`, the AC35 is 19.3 µM.

Take `C[C@@H]1CCCCO[C@H](CN(C)Cc2ccc(C(=O)Nc3ccccc3N)cc2)[C@@H](C)CN([C@H](C)CO)C(=O)c2cc(NS(=O)(=O)c3ccc(F)cc3)ccc2O1`: the AC35 is 14.1 µM.

As for `C[C@@H]1CN([C@H](C)CO)C(=O)c2cc(NC(=O)CCCCCC(=O)Nc3ccccc3N)ccc2O[C@@H]1CN(C)Cc1ccc(Cl)c(Cl)c1`, the AC35 was 9.95 µM.

Regarding `O=C(NC[C@@H]1N[C@@H](CO)[C@H]1c1ccc(C2=CCCCC2)cc1)c1cccc(F)c1`, the AC35 was 11.1 µM.

Take `CCc1cccc2c(C(=O)CN3C(=O)NC4(CCCCC4)C3=O)c[nH]c12`: the AC35 was 8.95 µM.

Regarding `CN(C)c1ccc2c(c1)[C@@H]1C[C@@H](CC(=O)NCc3ccc(Oc4ccccc4)cc3)O[C@H](CO)[C@@H]1O2`, the AC35 was 12.8 µM.

On to `N#CC1C=Cc2c(ccc3ccccc23)N1C(=O)c1ccccc1` (centres undefined), for which the AC35 was 9.42 µM.

For `CN1c2ccc(-c3ccc(C#N)cc3)cc2[C@H]2[C@H](CCN2S(=O)(=O)c2cccc(F)c2)[C@@H]1CO`, the AC35 was 4.45 µM.

Consider `Cc1nc(N)nc(N)c1/C=C/C(C)(C)c1ccc(Cl)cc1`, for which the AC35 was under 0.011 µM.

For `COc1ccc(C(C)(O)c2nc(-c3cccc(F)c3)cs2)cc1` (centres undefined), the AC35 is 9.33 µM.

Regarding `COC(=O)C[C@H]1CC[C@@H]2[C@H](COc3ccc(NC(=O)Nc4cccc(Cl)c4)cc3C(=O)N2C)O1`, the AC35 is 14.1 µM.

With `CN(C)c1ccc(C=c2c3ccccc3n3c2c2c([n+]3C)CCCC2)cc1`, the AC35 is 2.82 µM.

As to `Oc1c(Cl)cc(Cl)c2cccnc12`, the AC35 was 5.58 µM.

Consider `CCc1ccc(/C=C2\SC(=S)N(CCCC(=O)NCCCN3CCOCC3)C2=O)cc1`, for which the AC35 was 18.7 µM.

Take `O=c1cc(CN2CCN(Cc3ccccc3)CC2)c2ccc(O)c(O)c2o1`: the AC35 is 8.02 µM.

In the case of `Cc1[nH][nH]c(=O)c1C(c1c(C)[nH][nH]c1=O)c1cn(Cc2ccc(Cl)c(Cl)c2)c2ccccc12`, the AC35 was 9.8 µM.

`COc1cc(-c2noc(C)c2C#Cc2nccn2C)cc(OC)c1OC`: the AC35 was 15.9 µM.

Regarding `Nc1nc(N)c(-c2cccc(C(F)(F)F)c2)c(Cc2cccc(C(F)(F)F)c2)n1`, the AC35 was 5.72 µM.

For the molecule `COc1ccc(/C=C2/NC(=O)N(CC(=O)Nc3cccc(C)c3)C2=O)cc1O`, the AC35 was 18.8 µM.

Turning to `COC(=O)C[C@@H]1CC[C@@H]2[C@@H](COc3ccc(NC(=O)Nc4cccc(F)c4)cc3C(=O)N2C)O1`, the AC35 was 13.5 µM.

For the molecule `N#CC1=C(N)Oc2cc(N)ccc2C1c1cccc(F)c1` (centres undefined), the AC35 was 3.12 µM.

For `COc1ccc(C=C2CCc3ccccc3C2=O)cc1`, the AC35 was 18.9 µM.

`Cc1nn(Cc2ccccc2Cl)c2sc(C(=O)Nc3ccccc3N3CCOCC3)cc12`: the AC35 is 13.5 µM.

On to `C[C@H]1CN([C@@H](C)CO)S(=O)(=O)c2ccc(C#Cc3ccncc3)cc2O[C@@H]1CN(C)S(=O)(=O)c1ccccc1`, for which the AC35 was 16.5 µM.

Turning to `CCN(Cc1ccccc1)c1ccc(/C=N/N=C(N)N)cc1`, the AC35 is 6.3 µM.

As for `C[C@H](CO)N1C[C@H](C)[C@H](CN(C)Cc2ccccc2)Oc2ccc(NC(=O)CCCCCC(=O)Nc3ccccc3N)cc2CC1=O`, the AC35 was 15.7 µM.

For the molecule `COc1ccc(C2=Nn3c(nnc3-c3ccccc3OC)SC2)cc1OCC1CC1`, the AC35 is 4.88 µM.

As to `C[C@]12CC[C@H](O)C[C@H]1CC[C@@H]1[C@@H]2CC[C@]2(C)[C@@H](C3=CC(=O)OC3)CC[C@]12O`, the AC35 is 0.62 µM.

In the case of `CC(C)(C)c1ccc(Cn2c(=O)cnc3ccccc32)cc1`, the AC35 was 12.5 µM.

Consider `CCc1ccc(N2C=C(C(=O)OC)C(c3ccc(OC)cc3)C(C#N)=C2N)cc1` (centres undefined), for which the AC35 is 12.5 µM.

As to `O=C(CCc1ccccc1)NC(c1cccs1)c1cc(Cl)c2cccnc2c1O` (centres undefined), the AC35 was 0.694 µM.

`Nc1nc(=S)c2ncn([C@@H]3O[C@H](CO)[C@@H](O)[C@H]3O)c2[nH]1`: the AC35 is 1.53 µM.

With `CC1(C)N=C(N)N=C(N)N1c1ccc(CCCCc2ccccc2)cc1`, the AC35 was 0.65 µM.

On to `Cc1ccc(/C=N/Nc2ccnc3cc(Cl)ccc23)c(C)c1`, for which the AC35 is 6.15 µM.

Turning to `COc1ccc(C2=Nn3c([n+](C)c4ccccc43)SC2)cc1`, the AC35 was 20.2 µM.

Take `COc1ccc(CC(N)c2csc(NC(=O)Nc3cccc(C(F)(F)F)c3)n2)cc1` (centres undefined): the AC35 is 6.74 µM.

As for `C(=Cc1cnc2ccccc2n1)c1ccc2c(c1)OCO2`, the AC35 is 8.73 µM.

Take `CCCCC[C@H](C)N1C[C@H](COCc2ccccc2)Oc2cc(N3CC[C@@H](N(C)C)C3)ccc2S1(=O)=O`: the AC35 was 11.7 µM.

For the molecule `C[C@H](CO)N1C[C@H](C)[C@H](CN(C)CC2CCCCC2)Oc2ccc(NC(=O)Nc3cccc4ccccc34)cc2C1=O`, the AC35 was 18.7 µM.

With `O=C(c1cccc(S(=O)(=O)NCc2ccccc2)c1)N1CCN(c2ccccc2)CC1`, the AC35 was 20.8 µM.

`COc1cc2c(cc1NC(=O)CN(C)Cc1ccc(OC)c(OC)c1)oc1ccccc12`: the AC35 is 21.5 µM.

With `COC(=O)C1=C(C)N(Cc2cccc(C(F)(F)F)c2)C(=NCc2ccc(OC)cc2)NC1c1cccc(F)c1` (centres undefined), the AC35 was 4.46 µM.

As for `Cc1cccc(/C=N/Nc2ccc3ccccc3n2)c1`, the AC35 was 18.9 µM.

In the case of `C[C@H]1CN([C@@H](C)CO)C(=O)c2cc(NS(=O)(=O)c3ccc(Cl)cc3)ccc2O[C@H]1CN(C)Cc1ccc(C(=O)Nc2ccccc2N)cc1`, the AC35 is 13.1 µM.

(Values after PubChem BioAssay AID720587 (Broad Institute, 2013).)
